pIC50: −log10 of the molar value. Calls of active or inactive are those of the source. No cut-off for these calls is given here.
Columns and labels:
Format in all cases: functional, cell-based
Settings in all cases: Homo sapiens
HT-29 [1] = assay: Cytotoxicity against HT29 cell line
HT-29 [2] = assay: Cytotoxicity against HT29 cells in presence of Escherichia coli nitroreductase
HT-29 [3] = assay: Cytotoxicity against HT29 cells in hypoxic condition after 5 hrs

| Structure (SMILES) | pIC50 (HT-29 [1]) | pIC50 (HT-29 [2]) | Activity (HT-29 [3]) |
| --- | --- | --- | --- |
| O=[N+]([O-])c1ccc(C2Nc3ccc4cc5ccccc5nc4c3CO2)cc1 (stereo not given) | 5.64 | 6.70 | inactive |
| COc1cccc2c1C(=O)c1c(O)c3c(c(O)c1C2=O)C[C@@](O)(C(=O)CO)C[C@@H]3O[C@H]1C[C@H](N)[C@H](O)[C@H](C)O1 [DOXORUBICIN] | 5.63 |  |  |
| CC1Nc2ccc3cc4ccccc4nc3c2CO1 (stereo not given) | 6.22 |  |  |
| BrCC1Nc2ccc3cc4ccccc4nc3c2CO1 (stereo not given) | 5.90 |  |  |
| c1ccc(C2Nc3ccc4cc5ccccc5nc4c3CO2)cc1 (stereo not given) | 6.40 |  |  |
| c1ccc2nc3c4c(ccc3cc2c1)NCOC4 | 5.65 |  |  |
| ClCC1Nc2ccc3cc4ccccc4nc3c2CO1 (stereo not given) | 5.90 |  |  |
| c1ccc(COCC2Nc3ccc4cc5ccccc5nc4c3CO2)cc1 (stereo not given) | 5.40 |  |  |
